In patent US8778871B2 (Takeda Pharmaceutical Company Limited, priority 2004, dated 2014):
Non-standard residues stand in square brackets, D forms with d. Residues, ends and D or L forms follow the SMILES beside them. *: point of attachment. X9 = CC(C)C[C@H](NCCN*)C(=O)N[C@@H](CCCNC(=N)N)C(=O)N[C@@H](Cc1ccccc1)C(N)=O; NαAmidinoTrp = N=C(N)N[C@@H](Cc1c[nH]c2ccccc12)C(=O)*; Butyryl(4-indol-3-yl) = O=C(CCCc1c[nH]c2ccccc12)*; Arg(Me) = CNC(=N)NCCC[C@H](N)C(=O)O; d3Pal = N[C@H](Cc1cccnc1)C(=O)O; Hexanoyl = CCCCCC(=O)*; azaGly = NNC(=O)O

Molecular target: T1, hOT7T175 (Homo sapiens, UniProt Q969F8)
T1 construct: expressed in transfected cells
Assay: Intracellular Ca ion level-increasing activity using FLIPR (180 seconds; specific activity to Metastin (1-54))
Type: cell-based
Conditions: hOT7T175/CHO, change in intracellular calcium ion level for 180 seconds, Tables 21-23
Method: In accordance with the method described in JPA 2000-312590, the intracellular Ca ion level-increasing activity was measured using FLIPR. […]
The intracellular Ca ion level-increasing activity of the synthetic peptide in hOT7T175/CHO was determined using FLIPR (Molecular Devices, Inc.).
hOT7T175/CHO was subcultured in DMEM supplemented with 10% dialyzed fetal bovine serum (hereinafter abbreviated as dFBS) and provided for the experiment (hereinafter abbreviated as 10% dFBS/DMEM). The hOT7T175/CHO was suspended in 10% dFBS-DMEM in 15×10^4 cells/ml. The suspension was inoculated on a 96-well plate for FLIPR (Black Plate Clear Bottom, Coster, Inc.) at 200 μl each (3.0×10^4 cells/200 μl), followed by incubation at 37° C. overnight in a 5% CO2 incubator. The cells thus incubated were used (hereinafter simply referred to as the cell plate). Then, 21 ml of HANKS/HBSS (9.8 g of HANKS', 0.35 g of sodium hydrogencarbonate, 20 ml of 1M HEPES; after adjusting the pH to 7.4 with 1N sodium hydroxide, the mixture was subjected to sterilization through a filter), 210 μl of […] Probenecid and 210 μl of fetal bovine serum (FBS) were mixed (HANKS/HBSS-Probenecid-FBS).
Furthermore, 2 vials of Fluo3-AM (50 μg/vial) were dissolved in 21 μL of dimethylsulfoxide and 21 μL of 20% Pluronic acid. The resulting solution was added to and mixed with 10 ml of HANKS/HBSS-Probenecid-FBS described above. After the culture medium was removed, the mixture was dispensed onto the cell plate in 100 μl each/well, followed by incubation at 37° C. for an hour in a 5% CO2 incubator (pigment loading). The peptide was dissolved in dimethylsulfoxide in 1×10^−3 M. The peptide solution was diluted with HANKS'/HBSS containing 2.5 mM Probenecid and 0.2% BSA. The dilution was transferred to a 96-well plate for FLIPR (V-Bottom plate, Coster, Inc.) (hereinafter referred to as a sample plate). After completion of the pigment loading onto the cell plate, the cell plate washed 4 times with wash buffer, which was obtained by adding 2.5 mM Probenecid to HANKS'/HBSS, using a plate washer to leave 100 μL of wash buffer after the washing. The cell plate and the sample plate were set in FLIPR and 0.05 ml of a sample from the sample plate was automatically transferred to the cell plate with the FLIPR device to promote the cell response. A change in intracellular calcium ion level for 180 seconds was measured with passage of time.

T1 sequence (Q969F8 whole entry L364H): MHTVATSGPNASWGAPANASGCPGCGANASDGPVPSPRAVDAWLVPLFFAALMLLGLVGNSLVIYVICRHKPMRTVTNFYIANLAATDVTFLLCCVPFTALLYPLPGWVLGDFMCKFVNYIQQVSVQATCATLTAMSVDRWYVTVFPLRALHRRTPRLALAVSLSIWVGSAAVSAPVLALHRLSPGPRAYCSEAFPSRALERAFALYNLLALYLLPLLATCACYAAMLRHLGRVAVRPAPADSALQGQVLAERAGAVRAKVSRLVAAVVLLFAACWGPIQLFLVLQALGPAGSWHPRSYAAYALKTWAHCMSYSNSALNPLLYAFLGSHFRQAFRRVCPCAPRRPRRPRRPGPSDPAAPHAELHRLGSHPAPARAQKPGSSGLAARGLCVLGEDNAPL

Compound	intracellular Ca ion level-increasing activity [specific activity to Metastin (1-54)]
1-Oxo-isochroman-3-carbonyl-AzaGly-Leu-Arg(Me)-Trp-NH2 [Compound No. 408]	⅓
2-(Indol-3-yl)ethylcarbamoyl-Phe-AzaGly-Leu-Arg(Me)-Phe-NH2 [Compound No. 364]	1
2-Azetidinecarbonyl-Phe-AzaGly-Leu-Arg(Me)-Trp-NH2 [Compound No. 466]	⅓
2-Hydroxyisobutyryl-Phe-AzaGly-Leu-Arg(Me)-Trp-NH2 [Compound No. 453]	1
2-Methylnicotinoyl-Phe-AzaGly-Leu-Arg(Me)-Trp-NH2 [Compound No. 443]	½
2-Pyridinecarbonyl-Phe-AzaGly-Leu-Arg(Me)-Trp-NH2 [Compound No. 435]	10
3-(3-Indolyl)propionyl-Phe-Gly-Leu-Arg-Phe-NH2 [Compound No. 352]	⅓
3-(3-Pyridyl)propionyl-Phe-AzaGly-Leu-Arg(Me)-Phe-NH2 [Compound No. 340]	⅕
3-Phenylpropionyl-AzaGly-Leu-Arg(Me)-Phe-NH2 [Compound No. 362]	1/10
3-Pyridinecarbonyl-Phe-AzaGly-Leu-Arg(Me)-Trp-NH2 [Compound No. 432]	2
4-Pyridinecarbonyl-Phe-AzaGly-Leu-Arg(Me)-Nal(2)-NH2 [Compound No. 461]	⅓
4-Pyridinecarbonyl-Phe-AzaGly-Leu-Arg(Me)-Phe-NH2 [Compound No. 471]	1
4-Pyridinecarbonyl-Phe-AzaGly-Leu-Har-Trp-NH2 [Compound No. 478]	⅓
4-Pyridinecarbonyl-Phe-AzaGly-Leu-Orn-Trp-NH2 [Compound No. 477]	⅕
4-Pyridinecarbonyl-Phe-AzaGly-Val-Arg(Me)-Trp-NH2 [Compound No. 460]	⅓
5-Methylnicotinoyl-Phe-AzaGly-Leu-Arg(Me)-Trp-NH2 [Compound No. 444]	⅓
6-Hydroxynicotinoyl-Phe-AzaGly-Leu-Arg(Me)-Trp-NH2 [Compound No. 462]	1
CNC(=N)NCCC[C@H](NC(=O)[C@H](CC(C)C)NC(=O)NNC(=O)[C@H](Cc1ccccc1)NC(=O)[C@H](CO)NC(=O)[C@H](CC(N)=O)NC(=O)[C@H](Cc1ccccc1)NC(=O)[C@H](N)Cc1cccnc1)C(=O)N[C@@H](Cc1ccccc1)C(N)=O [Compound No. 256, D-Pya(3)-Phe-Asn-Ser-Phe-AzaGly-Leu-Arg(Me)-Phe-NH2] (H-[d3Pal]FNSF[azaGly]L[Arg(Me)]F-NH2)	1
CNC(=N)NCCC[C@H](NC(=O)[C@H](CC(C)C)NC(=O)NNC(=O)[C@H](Cc1ccccc1)NC(=O)[C@H](CO)NC(=O)[C@H](CC(N)=O)NC(=O)[C@H](Cc1ccccc1)NC(=O)[C@@H](CC(N)=O)NC(=O)[C@H](N)Cc1ccc(O)cc1)C(=O)N[C@@H](Cc1ccccc1)C(N)=O [Compound No. 257, D-Tyr-D-Asn-Phe-Asn-Ser-Phe-AzaGly-Leu-Arg(Me)-Phe-NH2] (H-[dY][dN]FNSF[azaGly]L[Arg(Me)]F-NH2)	3
CNC(=N)NCCC[C@H](NC(=O)[C@H](CC(C)C)NC(=O)NNC(=O)[C@H](Cc1ccccc1)NC(=O)[C@H](CO)NC(=O)[C@H](CC(N)=O)NC(=O)[C@H](Cc1c[nH]c2ccccc12)NC(=O)[C@H](CC(N)=O)NC(=O)[C@H](N)Cc1cccnc1)C(=O)N[C@@H](Cc1ccccc1)C(N)=O [Compound No. 258, D-Pya(3)-Asn-Trp-Asn-Ser-Phe-AzaGly-Leu-Arg(Me)-Phe-NH2] (H-[d3Pal]NWNSF[azaGly]L[Arg(Me)]F-NH2)	2
CNC(=N)NCCC[C@H](NC(=O)[C@H](CC(C)C)NC(=O)NNC(=O)[C@H](Cc1ccccc1)NC(=O)[C@H](CO)NC(=O)[C@H](CC(N)=O)NC(=O)[C@H](Cc1c[nH]c2ccccc12)NC(=O)[C@H](CC(N)=O)NC(=O)[C@@H](C)N)C(=O)N[C@@H](Cc1ccccc1)C(N)=O [Compound No. 259, D-Ala-Asn-Trp-Asn-Ser-Phe-AzaGly-Leu-Arg(Me)-Phe-NH2] (H-[dA]NWNSF[azaGly]L[Arg(Me)]F-NH2)	1
CC(C)C[C@H](NCCNC(=O)[C@H](Cc1ccccc1)NC(=O)[C@H](CO)NC(=O)[C@H](CC(N)=O)NC(=O)[C@H](Cc1c[nH]c2ccccc12)NC(=O)[C@H](CC(N)=O)NC(=O)[C@@H](N)Cc1ccc(O)cc1)C(=O)N[C@@H](CCCNC(=N)N)C(=O)N[C@@H](Cc1ccccc1)C(N)=O [Compound No. 261, Tyr-Asn-Trp-Asn-Ser-Phe-GlyΨ(CH2NH)Leu-Arg-Phe-NH2] (H-YNWNSF-X9)	1
CNC(=N)NCCC[C@H](NC(=O)[C@H](CC(C)C)NC(=O)NNC(=O)[C@H](Cc1ccccc1)NC(=O)[C@H](CO)NC(=O)[C@H](CC(N)=O)NC(=O)CCCc1c[nH]c2ccccc12)C(=O)N[C@@H](Cc1ccccc1)C(N)=O [Compound No. 267, 4-(3-Indolyl)butyryl-Asn-Ser-Phe-AzaGly-Leu-Arg(Me)-Phe-NH2] ({Butyryl(4-indol-3-yl)}-NSF[azaGly]L[Arg(Me)]F-NH2)	2
CNC(=N)NCCC[C@H](NC(=O)[C@H](CC(C)C)NC(=O)NNC(=O)[C@H](Cc1ccccc1)NC(=O)[C@H](Cc1ccccc1)NC(=O)[C@H](CO)NC(=O)[C@H](CC(N)=O)NC(=O)[C@H](Cc1ccccc1)NC(=O)[C@H](CC(N)=O)NC(=O)[C@H](N)Cc1ccc(O)cc1)C(=O)N[C@@H](Cc1ccccc1)C(N)=O [Compound No. 270, D-Tyr-Asn-Phe-Asn-Ser-Phe-Phe-AzaGly-Leu-Arg(Me)-Phe-NH2] (H-[dY]NFNSFF[azaGly]L[Arg(Me)]F-NH2)	1
CNC(=N)NCCC[C@H](NC(=O)[C@H](CC(C)C)NC(=O)NNC(=O)[C@H](Cc1ccccc1)NC(=O)[C@H](CO)NC(=O)[C@H](CC(N)=O)NC(=O)[C@@H](N)Cc1c[nH]c2ccccc12)C(=O)N[C@@H](Cc1ccccc1)C(N)=O [Compound No. 271, Trp-Asn-Ser-Phe-AzaGly-Leu-Arg(Me)-Phe-NH2] (H-WNSF[azaGly]L[Arg(Me)]F-NH2)	1
CNC(=N)NCCC[C@H](NC(=O)[C@H](CC(C)C)NC(=O)NNC(=O)[C@H](Cc1ccccc1)NC(=O)[C@H](CO)NC(=O)[C@H](CC(N)=O)NC(=O)[C@H](Cc1c[nH]c2ccccc12)NC(C)=O)C(=O)N[C@@H](Cc1ccccc1)C(N)=O [Compound No. 272, Acetyl-Trp-Asn-Ser-Phe-AzaGly-Leu-Arg(Me)-Phe-NH2] (Ac-WNSF[azaGly]L[Arg(Me)]F-NH2)	2
CNC(=N)NCCC[C@H](NC(=O)[C@H](CC(C)C)NC(=O)NNC(=O)[C@H](Cc1ccccc1)NC(=O)[C@H](CO)NC(=O)[C@H](CC(N)=O)NC(=O)[C@H](Cc1c[nH]c2ccccc12)NC(=N)N)C(=O)N[C@@H](Cc1ccccc1)C(N)=O [Compound No. 273, Amidino-Trp-Asn-Ser-Phe-AzaGly-Leu-Arg(Me)-Phe-NH2] (NαAmidinoTrp-NSF[azaGly]L[Arg(Me)]F-NH2)	5
CCCCCC(=O)N[C@@H](CC(N)=O)C(=O)N[C@@H](CO)C(=O)N[C@@H](Cc1ccccc1)C(=O)NNC(=O)N[C@@H](CC(C)C)C(=O)N[C@@H](CCCNC(=N)NC)C(=O)N[C@@H](Cc1ccccc1)C(N)=O [Compound No. 277, n-Hexanoyl-Asn-Ser-Phe-AzaGly-Leu-Arg(Me)-Phe-NH2] (Hexanoyl-NSF[azaGly]L[Arg(Me)]F-NH2)	2
